Columns and labels:
[1] = test system: A431cells (human epidermoid carcinoma); test: In vitro tumor cell proliferation assay (Cell Titer-Glo luminescent cell viability), A431 cells; assay type: cell-based; details: A-431, 72 h, 72 hours drug exposure, 10% Fetal Bovine Serum, ATP luminescence readout, read-out: IC50 (50% inhibition of cell proliferation)
Text: (§1) In vitro Tumor Cell Proliferation Assay
(§2) The tumor cell proliferation assay used to test the compounds of the present invention involves a readout called Cell Titer-Glow® Luminescent Cell Viability Assay developed by Promega (Cunningham, B A “A Growing Issue: Cell Proliferation Assays, Modern kits ease quantification of cell growth” The Scientist 2001, 15(13), 26, and Crouch, S P et al., “The use of ATP bioluminescence as a measure of cell proliferation and cytotoxicity” Journal of Immunological Methods 1993, 160, 81–88), that measures inhibition of cell proliferation. Generation of a luminescent signal corresponds to the amount of ATP present, which is directly proportional to the number of metabolically active (proliferating) cells.
(§3) A431cells (human epidermoid carcinoma, ATCC # HTB-20) and BT474 (human breast carcinoma, ATCC # CRL-1555) were plated at a density of 2.5×10^3 cells/well in 96 well black-clear bottom tissue culture plates in RPMI media with 10% Fetal Bovine Serum and incubated at 37° C. Twenty-four hours later, test compounds are added at a final concentration range from as high 100 μM to as low 64 pM depend on the activities of the tested compounds in serial dilutions at a final DMSO concentration of 0.1%. Cells were incubated for 72 hours at 37° C. in complete growth media after addition of the test compound. After 72 hours of drug exposure, the plates were equilibrated to room temperature for approximately 30 min. Then, using a Promega Cell Titer Glo Luminescent® assay kit, lysis buffer containing 100 microliters of the enzyme luciferase and its substrate, luciferin mixture, was added to each well. The plates were mixed for 2 min on orbital shaker to ensure cell lysis and incubated for 10 min at room temperature to stabilize luminescence signal. The samples were read on VICTOR 2 using Luminescence protocol, and analyzed with Analyze5 software to generate IC50 values.

[2] = test system: BT474 (human breast carcinoma); test: In vitro tumor cell proliferation assay (Cell Titer-Glo luminescent cell viability), BT474 cells; assay type: cell-based; details: BT-474, 72 hours drug exposure, 10% Fetal Bovine Serum, ATP luminescence readout, read-out: IC50 (50% inhibition of cell proliferation)
Text: as §1, §2, §3

| Compound | IC50 [1] [µM] | IC50 [2] [µM] |
| --- | --- | --- |
| O=C(O)C1CCc2c(sc3ncnc(Nc4cccc(Br)c4)c23)C1 (stereo not drawn) [Example 1, 4-[(3-bromophenyl)amino]-5,6,7,8-tetrahydro[1]benzothieno[2,3-d]pyrimidine-7-carboxylic acid] | < 50 | < 50 |
| O=C(O)C1CCc2c(sc3ncnc(Nc4ccc(Br)cc4F)c23)C1 (stereo not drawn) [Example 2, 4-[(4-bromo-2-fluorophenyl)amino]-5,6,7,8-tetrahydro[1]benzothieno[2,3-d]pyrimidine-7-carboxylic acid] | < 50 | < 5 |
| O=C(C1CCc2c(sc3ncnc(Nc4ccc(F)c(Cl)c4)c23)C1)N1CCCCC1 (stereo not drawn) [Example 3, N-(3-chloro-4-fluorophenyl)-7-(1-piperidinylcarbonyl)-5,6,7,8-tetrahydro[1]benzothieno[2,3-d]pyrimidin-4-amine] | < 50 | < 50 |
| Fc1ccc(Nc2ncnc3sc4c(c23)CCC(CN2CCCCC2)C4)cc1Cl (stereo not drawn) [Example 4, N-(3-chloro-4-fluorophenyl)-7-(1-piperidinylmethyl)-5,6,7,8-tetrahydro[1]benzothieno[2,3-d]pyrimidin-4-amine] | < 5 | < 5 |
| COCCN(C)C(=O)C1CCc2c(sc3ncnc(Nc4ccc(F)c(Cl)c4)c23)C1 (stereo not drawn) [Example 8, 4-[(3-chloro-4-fluorophenyl)amino]-N-(2-methoxyethyl)-N-methyl-5,6,7,8-tetrahydro[1]benzothieno[2,3-d]pyrimidine-7-carboxamide] | < 50 | < 50 |
| Fc1ccc(Nc2ncnc3sc4c(c23)CCC(CN2CCOCC2)C4)cc1Cl (stereo not drawn) [Example 12, N-(3-chloro-4-fluorophenyl)-7-(4-morpholinylmethyl)-5,6,7,8-tetrahydro[1]benzothieno[2,3-d]pyrimidin-4-amine] | < 50 | < 50 |
| CN1CCN(CC2CCc3c(sc4ncnc(Nc5ccc(F)c(Cl)c5)c34)C2)CC1 (stereo not drawn) [Example 15, N-(3-chloro-4-fluorophenyl)-7-[(4-methyl-1-piperazinyl)methyl]-5,6,7,8-tetrahydro[1]benzothieno[2,3-d]pyrimidin-4-amine] | < 5 | < 5 |
| COCCNC(=O)C1CCc2c(sc3ncnc(Nc4ccc(F)c(Cl)c4)c23)C1 (stereo not drawn) [Example 16, 4-[(3-chloro-4-fluorophenyl)amino]-N-(2-methoxyethyl)-5,6,7,8-tetrahydro[1]benzothieno[2,3-d]pyrimidine-7-carboxamide] | < 50 | < 50 |
| O=C(O)C1CCc2c(sc3ncnc(Nc4ccc(F)c(Cl)c4)c23)C1 (stereo not drawn) [Example 20, 4-[(3-chloro-4-fluorophenyl)amino]-5,6,7,8-tetrahydro[1]benzothieno[2,3-d]pyrimidine-7-carboxylic acid] | < 50 | < 50 |
| CN1CCN(CC2CCc3c(sc4ncnc(Nc5ccc(Br)cc5F)c34)C2)CC1 (stereo not drawn) [Example 22] | < 5 | < 5 |
| COCCNC(=O)C1CCc2c(sc3ncnc(Nc4ccc(Br)cc4F)c23)C1 (stereo not drawn) [Example 23, 4-[(4-bromo-2-fluorophenyl)amino]-N-(2-methoxyethyl)-5,6,7,8-tetrahydro[1]benzothieno[2,3-d]pyrimidin-7-carboxamide] | < 50 | < 50 |
| CCOC(=O)C1CCc2c(sc3ncnc(Nc4ccc(F)c(Cl)c4)c23)C1 (stereo not drawn) [Example 24, ethyl 4-[(3-chloro-4-fluorophenyl)amino]-5,6,7,8-tetrahydro[1]benzothieno[2,3-d]pyrimidine-7-carboxylate] | < 50 | < 50 |
| CN1CCN(CC2CCc3c(sc4ncnc(Nc5cccc(Br)c5)c34)C2)CC1 (stereo not drawn) [Example 26, N-(3-bromophenyl)-7-[(4-methyl-1-piperazinyl)methyl]-5,6,7,8-tetrahydro[1]benzothieno[2,3-d]pyrimidin-4-amine] | < 5 | – |
| COCCN(C)C(=O)C1CCc2c(sc3ncnc(Nc4cccc(Br)c4)c23)C1 (stereo not drawn) [Example 31, 4-[(3-bromophenyl)amino]-N-(2-methoxyethyl)-N-methyl-5,6,7,8-tetrahydro[1]benzothieno[2,3-d]pyrimidine-7-carboxamide] | < 50 | < 50 |
| CCOC(=O)C1CCc2c(sc3ncnc(Nc4ccc(OCc5ccccc5)cc4)c23)C1 (stereo not drawn) [Example 32, Ethyl 4-{[4-(benzyloxy)phenyl]amino}-5,6,7,8-tetrahydro[1]benzothieno[2,3-d]pyrimidine-7-carboxylate] | < 50 | < 50 |
| COCCN(C)CC1CCc2c(sc3ncnc(Nc4cccc(Br)c4)c23)C1 (stereo not drawn) [Example 36, N-(3-bromophenyl)-7-{[(2-methoxyethyl)(methyl)amino]methyl}-5,6,7,8-tetrahydro[1]benzothieno[2,3-d]pyrimidin-4-amine] | – | < 5 |
| CCOC(=O)C1CCc2c(sc3ncnc(Nc4ccc(C)c(O)c4)c23)C1 (stereo not drawn) [Example 39, Ethyl 4-[(3-hydroxy-4-methylphenyl)amino]-5,6,7,8-tetrahydro[1]benzothieno[2,3-d]pyrimidine-7-carboxylate] | < 50 | < 5 |
| CCOC(=O)C1CCc2c(sc3ncnc(Nc4cccc(O)c4)c23)C1 (stereo not drawn) [Example 40, Ethyl 4-[(3-hydroxyphenyl)amino]-5,6,7,8-tetrahydro[1]benzothieno[2,3-d]pyrimidine-7-carboxylate] | < 50 | < 50 |
| CCOC(=O)C1CCc2c(sc3ncnc(Nc4ccc(Cl)cc4F)c23)C1 (stereo not drawn) [Example 42, Ethyl 4-[(4-chloro-2-fluorophenyl)amino]-5,6,7,8-tetrahydro[1]benzothieno[2,3-d]pyrimidine-7-carboxylate] | < 50 | < 5 |
| CN1CCN(C(=O)C2CCc3c(sc4ncnc(Nc5ccc(OCc6ccccc6)cc5)c34)C2)CC1 (stereo not drawn) [Example 43, N-[4-(benzyloxy)phenyl]-7-[(4-methyl-1-piperazinyl)carbonyl]-5,6,7,8-tetrahydro[1]benzothieno[2,3-d]pyrimidin-4-amine] | – | < 5 |
| Brc1cccc(Nc2ncnc3sc4c(c23)CCC(CCN2CCOCC2)C4)c1 (stereo not drawn) [Example 45, N-(3-bromophenyl)-7-[2-(4-morpholinyl)ethyl]-5,6,7,8-tetrahydro[1]benzothieno[2,3-d]pyrimidin-4-amine] | < 5 | < 5 |
| Cc1ccc(Nc2ncnc3sc4c(c23)CCC(C(=O)O)C4)cc1O (stereo not drawn) [Example 46, 4-[(3-hydroxy-4-methylphenyl)amino]-5,6,7,8tetrahydro[1]benzothieno[2,3-d]pyrimidine-7-carboxylic acid] | < 50 | – |
| OCCC1CCc2c(sc3ncnc(Nc4ccc(OCc5ccc(F)cc5)c(Cl)c4)c23)C1 (stereo not drawn) [Example 155, 2-[4-({3-chloro-4-[(4-fluorobenzyl)oxy]phenyl}amino)-5,6,7,8-tetrahydro[1]benzothieno[2,3-d]pyrimidin-7-yl]ethanol] | – | < 5 |
| CS(=O)(=O)OCCC1CCc2c(sc3ncnc(Nc4ccc(OCc5ccc(F)cc5)c(Cl)c4)c23)C1 (stereo not drawn) [Example 156, 2-[4-({3-chloro-4-[(4-fluorobenzyl)oxy]phenyl}amino)-5,6,7,8-tetrahydro[1]benzothieno[2,3-d]pyrimidin-7-yl]ethyl methanesulfonate] | – | < 5 |

From patent publication US7238701B2, “Substituted tetrahydrobenzothienopyrimidinamine compounds useful for treating hyper-proliferative disorders” (Bayer Pharmaceuticals Corporation, priority 2003, dated 2007)
